In ChEMBL document CHEMBL1255421, “In vitro fungicidal activities of echinocandins against Candida metapsilosis, C. orthopsilosis, and C. parapsilosis evaluated by time-kill studies” (2010):
Values after ≈ are worked out from the molar mass of the structure shown. Active and inactive are the calls of the source. The calls are words filed in the database; no cut-off is given here. Numbered stars: 1 amine (or outer) side, 2 acyl side, 3 side chain; on linkers, the order of the positions; unused ones are H or OH. Bridge positions count the residues as written; N and C are the ends. Square brackets hold non-standard residues; d marks the D form. Peptide text beside a SMILES is read from it. * marks the point of attachment. hTyr(3S-OH,4S-OH,3'-OSO3H) = N[C@H](C(=O)O)[C@H](O)[C@@H](O)c1ccc(O)c(OS(=O)(=O)O)c1; Orn(4R-OH,5R-OH) = O=C([C@H](C[C@@H](O)[C@@H](O)N[*:3])N[*:1])[*:2]; Pro(3S-OH,4S-Me) = C[C@H]1CN[C@H](C(=O)O)[C@H]1O; X1 = CCCCCOc1ccc(-c2cc(-c3ccc(C(=O)*)cc3)no2)cc1; Gln(3R-OH) = NC(=O)C[C@@H](O)[C@H](N)C(=O)O; Hyp = O=C(O)[C@@H]1C[C@@H](O)CN1

Legend:
Candida metapsilosis [1] = assay: Antifungal activity against Candida metapsilosis clinical isolate bloodstream form assessed as time required for 99% reduction in fungal growth at 32 mg/L by time-kill assay; format: functional
Candida parapsilosis [2] = assay: Antifungal activity against Candida parapsilosis clinical isolate bloodstream form assessed as time required for 99.9% reduction in fungal growth at 1 mg/L by time-kill assay; format: functional
Candida parapsilosis [3] = assay: Antifungal activity against Candida parapsilosis clinical isolate bloodstream form assessed as time required for 99% reduction in fungal growth at 16 mg/L by time-kill assay; format: functional
Candida parapsilosis [4] = assay: Antifungal activity against Candida parapsilosis clinical isolate bloodstream form assessed as time required for 90% reduction in fungal growth at 32 mg/L by time-kill assay; format: functional
Candida parapsilosis [5] = assay: Antifungal activity against Candida parapsilosis clinical isolate bloodstream form assessed as time required for 90% reduction in fungal growth at 1 mg/L by time-kill assay; format: functional
Candida parapsilosis [6] = assay: Antifungal activity against Candida parapsilosis clinical isolate bloodstream form assessed as time required for 99.9% reduction in fungal growth at 0.25 mg/L by time-kill assay; format: functional
Candida orthopsilosis [7] = assay: Antifungal activity against Candida orthopsilosis clinical isolate bloodstream form assessed as time required for 99.9% reduction in fungal growth at 1 mg/L by time-kill assay; format: functional
Candida metapsilosis [8] = assay: Antifungal activity against Candida metapsilosis clinical isolate bloodstream form assessed as time required for 99% reduction in fungal growth at 4 mg/L by time-kill assay; format: functional
Candida orthopsilosis [9] = assay: Antifungal activity against Candida orthopsilosis clinical isolate bloodstream form assessed as time required for 99.9% reduction in fungal growth at 0.25 mg/L by time-kill assay; format: functional
Candida metapsilosis [10] = assay: Antifungal activity against Candida metapsilosis clinical isolate bloodstream form assessed as time required for 99.9% reduction in fungal growth at 4 mg/L by time-kill assay; format: functional
Candida metapsilosis [11] = assay: Antifungal activity against Candida metapsilosis clinical isolate bloodstream form assessed as time required for 90% reduction in fungal growth at 32 mg/L by time-kill assay; format: functional
Candida parapsilosis [12] = assay: Antifungal activity against Candida parapsilosis clinical isolate bloodstream form assessed as time required for 99.9% reduction in fungal growth at 32 mg/L by time-kill assay; format: functional
Candida orthopsilosis [13] = assay: Antifungal activity against Candida orthopsilosis clinical isolate bloodstream form assessed as time required for 99% reduction in fungal growth at 0.25 mg/L by time-kill assay; format: functional
Candida orthopsilosis [14] = assay: Fungicidal activity against Candida orthopsilosis isolate CP-131 bloodstream form by CLSI method; format: functional; settings: Lodderomyces orthopsilosis
Candida metapsilosis [15] = assay: Antifungal activity against Candida metapsilosis clinical isolate bloodstream form assessed as time required for 99.9% reduction in fungal growth at 0.25 mg/L by time-kill assay; format: functional
Candida orthopsilosis [16] = assay: Fungicidal activity against Candida orthopsilosis isolate CP-150 bloodstream form by CLSI method; format: functional; settings: Lodderomyces orthopsilosis
Candida orthopsilosis [17] = assay: Antifungal activity against Candida orthopsilosis clinical isolate bloodstream form assessed as time required for 50% reduction in fungal growth at 0.25 mg/L by time-kill assay; format: functional
Candida metapsilosis [18] = assay: Antifungal activity against Candida metapsilosis clinical isolate bloodstream form assessed as time required for 99.9% reduction in fungal growth at 1 mg/L by time-kill assay; format: functional
Candida parapsilosis [19] = assay: Antifungal activity against Candida parapsilosis clinical isolate bloodstream form assessed as time required for 50% reduction in fungal growth at 16 mg/L by time-kill assay; format: functional
Candida parapsilosis [20] = assay: Fungicidal activity against Candida parapsilosis isolate CP-302 bloodstream form by CLSI method; format: functional; settings: Lodderomyces parapsilosis
Candida orthopsilosis [21] = assay: Antifungal activity against Candida orthopsilosis clinical isolate bloodstream form assessed as time required for 99% reduction in fungal growth at 16 mg/L by time-kill assay; format: functional
Candida metapsilosis [22] = assay: Antifungal activity against Candida metapsilosis clinical isolate bloodstream form assessed as time required for 99% reduction in fungal growth at 0.25 mg/L by time-kill assay; format: functional
Candida orthopsilosis [23] = assay: Antifungal activity against Candida orthopsilosis clinical isolate bloodstream form assessed as time required for 99% reduction in fungal growth at 32 mg/L by time-kill assay; format: functional
Candida parapsilosis [24] = assay: Fungicidal activity against Candida parapsilosis ATCC 22019 bloodstream form by CLSI method; format: functional; settings: Lodderomyces parapsilosis
Candida orthopsilosis [25] = assay: Antifungal activity against Candida orthopsilosis clinical isolate bloodstream form assessed as time required for 99.9% reduction in fungal growth at 32 mg/L by time-kill assay; format: functional
Candida metapsilosis [26] = assay: Antifungal activity against Candida metapsilosis clinical isolate bloodstream form assessed as time required for 99.9% reduction in fungal growth at 16 mg/L by time-kill assay; format: functional
Candida parapsilosis [27] = assay: Antifungal activity against Candida parapsilosis clinical isolate bloodstream form assessed as time required for 99% reduction in fungal growth at 0.25 mg/L by time-kill assay; format: functional
Candida orthopsilosis [28] = assay: Antifungal activity against Candida orthopsilosis clinical isolate bloodstream form assessed as mild induction of fungal death at 0.03 to 32 mg/L after 6 hrs by time-kill assay; format: functional, organism-based
Candida parapsilosis [29] = assay: Fungicidal activity against Candida parapsilosis isolate CP-301 bloodstream form by CLSI method; format: functional; settings: Lodderomyces parapsilosis
Candida parapsilosis [30] = assay: Antifungal activity against Candida parapsilosis clinical isolate bloodstream form assessed as time required for 50% reduction in fungal growth at 0.25 mg/L by time-kill assay; format: functional
Candida orthopsilosis [31] = assay: Antifungal activity against Candida orthopsilosis clinical isolate bloodstream form assessed as time required for 99% reduction in fungal growth at 4 mg/L by time-kill assay; format: functional
Candida metapsilosis [32] = assay: Antifungal activity against Candida metapsilosis clinical isolate bloodstream form assessed as induction of fungal killing rate at 0.03 to 32 mg/L measured at 6 hrs by time-kill assay; format: functional, organism-based
Candida metapsilosis [33] = assay: Antifungal activity against Candida metapsilosis clinical isolate bloodstream form assessed as time required for 90% reduction in fungal growth at 0.25 mg/L by time-kill assay; format: functional
Candida orthopsilosis [34] = assay: Antifungal activity against Candida orthopsilosis clinical isolate bloodstream form assessed as induction of fungal killing rate at 0.03 to 32 mg/L measured at 6 hrs by time-kill assay; format: functional, organism-based
Candida parapsilosis [35] = assay: Antifungal activity against Candida parapsilosis clinical isolate bloodstream form assessed as time required for 99% reduction in fungal growth at 1 mg/L by time-kill assay; format: functional
Candida metapsilosis [36] = assay: Antifungal activity against Candida metapsilosis clinical isolate bloodstream form assessed as mild induction of fungal death at 0.03 to 32 mg/L after 6 hrs by time-kill assay; format: functional, organism-based
Candida metapsilosis [37] = assay: Fungicidal activity against Candida metapsilosis isolate ATC193 bloodstream form by CLSI method; format: functional; settings: Lodderomyces metapsilosis, isolate ATC-193
Candida parapsilosis [38] = assay: Antifungal activity against Candida parapsilosis clinical isolate bloodstream form assessed as time required for 90% reduction in fungal growth at 16 mg/L by time-kill assay; format: functional
Candida orthopsilosis [39] = assay: Antifungal activity against Candida orthopsilosis clinical isolate bloodstream form assessed as time required for 99.9% reduction in fungal growth at 4 mg/L by time-kill assay; format: functional
Candida metapsilosis [40] = assay: Antifungal activity against Candida metapsilosis clinical isolate bloodstream form assessed as time required for 90% reduction in fungal growth at 1 mg/L by time-kill assay; format: functional
Candida orthopsilosis [41] = assay: Antifungal activity against Candida orthopsilosis clinical isolate bloodstream form assessed as time required for 50% reduction in fungal growth at 4 mg/L by time-kill assay; format: functional
Candida metapsilosis [42] = assay: Antifungal activity against Candida metapsilosis clinical isolate bloodstream form assessed as time required for 90% reduction in fungal growth at 16 mg/L by time-kill assay; format: functional
Candida metapsilosis [43] = assay: Antifungal activity against Candida metapsilosis clinical isolate bloodstream form assessed as time required for 99% reduction in fungal growth at 1 mg/L by time-kill assay; format: functional

Structure (SMILES): CC[C@H](C)C[C@H](C)CCCCCCCCC(=O)N[C@H]1C[C@@H](O)[C@@H](NCCN)NC(=O)[C@@H]2[C@@H](O)CCN2C(=O)[C@H]([C@H](O)CCN)NC(=O)[C@H]([C@H](O)[C@@H](O)c2ccc(O)cc2)NC(=O)[C@@H]2C[C@@H](O)CN2C(=O)[C@H]([C@@H](C)O)NC1=O [CASPOFUNGIN]
- Time (Candida metapsilosis [1]): 13.2 h
- Time (Candida parapsilosis [2]): >48 h
- Time (Candida parapsilosis [3]): >48 h
- Time (Candida parapsilosis [4]): 6.6 h
- Time (Candida parapsilosis [5]): >48 h
- Time (Candida parapsilosis [6]): >48 h
- Time (Candida orthopsilosis [7]): >48 h
- Time (Candida metapsilosis [8]): >48 h
- Time (Candida orthopsilosis [9]): >48 h
- Time (Candida metapsilosis [10]): >48 h
- Time (Candida metapsilosis [11]): 6.6 h
- Time (Candida parapsilosis [12]): >48 h
- Time (Candida orthopsilosis [13]): >48 h
- MIC (Candida orthopsilosis [14]): 2 µg/mL (≈ 1.83 µM)
- Time (Candida metapsilosis [15]): >48 h
- MIC (Candida orthopsilosis [16]): 0.5 µg/mL (≈ 0.457 µM)
- Time (Candida orthopsilosis [17]): 17.5 h
- Time (Candida metapsilosis [18]): >48 h
- Time (Candida parapsilosis [19]): 2.59 h
- MIC (Candida parapsilosis [20]): 2 µg/mL (≈ 1.83 µM)
- Time (Candida orthopsilosis [21]): 25.64 h
- Time (Candida metapsilosis [22]): >48 h
- Time (Candida orthopsilosis [23]): >48 h
- MIC (Candida parapsilosis [24]): 1 µg/mL (≈ 0.915 µM)
- Time (Candida orthopsilosis [25]): >48 h
- Time (Candida metapsilosis [26]): 25.82 h
- Time (Candida parapsilosis [27]): >48 h
- Activity (Candida orthopsilosis [28]): Active
- MIC (Candida parapsilosis [29]): 2 µg/mL (≈ 1.83 µM)
- Time (Candida parapsilosis [30]): >48 h
- Time (Candida orthopsilosis [31]): 22.7 h
- Activity (Candida metapsilosis [32]): inactive
- Time (Candida metapsilosis [33]): >48 h
- Activity (Candida orthopsilosis [34]): inactive
- Time (Candida parapsilosis [35]): >48 h
- Activity (Candida metapsilosis [36]): Active
- MIC (Candida metapsilosis [37]): 0.12 µg/mL (≈ 0.11 µM)
- Time (Candida parapsilosis [38]): 8.61 h
- Time (Candida orthopsilosis [39]): 34.05 h
- Time (Candida metapsilosis [40]): >48 h
- Time (Candida orthopsilosis [41]): 3.42 h
- Time (Candida metapsilosis [42]): 8.61 h
- Time (Candida metapsilosis [43]): >48 h

Structure (SMILES): CCCCCOc1ccc(-c2cc(-c3ccc(C(=O)N[C@H]4C[C@@H](O)[C@@H](O)NC(=O)[C@@H]5[C@@H](O)[C@@H](C)CN5C(=O)[C@H]([C@H](O)CC(N)=O)NC(=O)[C@H]([C@H](O)[C@@H](O)c5ccc(O)c(OS(=O)(=O)O)c5)NC(=O)[C@@H]5C[C@@H](O)CN5C(=O)[C@H]([C@@H](C)O)NC4=O)cc3)no2)cc1 [MICAFUNGIN] (X1-[Orn(4R-OH,5R-OH)]T[Hyp][hTyr(3S-OH,4S-OH,3'-OSO3H)][Gln(3R-OH)][Pro(3S-OH,4S-Me)]; lactam 1-C)
- Time (Candida metapsilosis [1]): 9.53 h
- Time (Candida parapsilosis [2]): inactive
- Time (Candida parapsilosis [3]): >48 h
- Time (Candida parapsilosis [4]): 20.45 h
- Time (Candida parapsilosis [5]): inactive
- Time (Candida parapsilosis [6]): inactive
- Time (Candida orthopsilosis [7]): 30.4 h
- Time (Candida metapsilosis [8]): 11.79 h
- Time (Candida orthopsilosis [9]): >48 h
- Time (Candida metapsilosis [10]): 17.68 h
- Time (Candida metapsilosis [11]): 4.76 h
- Time (Candida parapsilosis [12]): >48 h
- Time (Candida orthopsilosis [13]): >48 h
- MIC (Candida orthopsilosis [14]): 0.25 µg/mL (≈ 0.197 µM)
- Time (Candida metapsilosis [15]): >48 h
- MIC (Candida orthopsilosis [16]): 0.25 µg/mL (≈ 0.197 µM)
- Time (Candida orthopsilosis [17]): 15.93 h
- Time (Candida metapsilosis [18]): 30.46 h
- Time (Candida parapsilosis [19]): 9.5 h
- MIC (Candida parapsilosis [20]): 1 µg/mL (≈ 0.787 µM)
- Time (Candida orthopsilosis [21]): 9.17 h
- Time (Candida metapsilosis [22]): >48 h
- Time (Candida orthopsilosis [23]): 10.22 h
- MIC (Candida parapsilosis [24]): 0.5 µg/mL (≈ 0.394 µM)
- Time (Candida orthopsilosis [25]): 15.34 h
- Time (Candida metapsilosis [26]): 14.41 h
- Time (Candida parapsilosis [27]): inactive
- Activity (Candida orthopsilosis [28]): Active
- MIC (Candida parapsilosis [29]): 1 µg/mL (≈ 0.787 µM)
- Time (Candida parapsilosis [30]): inactive
- Time (Candida orthopsilosis [31]): 11.06 h
- Activity (Candida metapsilosis [32]): inactive
- Time (Candida metapsilosis [33]): >48 h
- Activity (Candida orthopsilosis [34]): inactive
- Time (Candida parapsilosis [35]): inactive
- Activity (Candida metapsilosis [36]): Active
- MIC (Candida metapsilosis [37]): 0.25 µg/mL (≈ 0.197 µM)
- Time (Candida parapsilosis [38]): 31.55 h
- Time (Candida orthopsilosis [39]): 16.59 h
- Time (Candida metapsilosis [40]): 10.15 h
- Time (Candida orthopsilosis [41]): 1.66 h
- Time (Candida metapsilosis [42]): 4.8 h
- Time (Candida metapsilosis [43]): 20.3 h
